In the assay the test system is P388 leukemia ip, CD2F1 mice, survival T/C. Description: NCI In Vivo Anticancer Drug Screen. Data for tumor model P388 Leukemia (intraperitoneal) in CD2F1 (CDF1) mice. The note with it: endpoint: median survival time, higher = longer survival. The essentials:
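Mice carrying the transplanted tumor received test compound or vehicle. Survival was recorded in each group, and the value is the treated-group measurement divided by that of the vehicle-treated control group.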

Setting [1] is: dose: 50.0 mg/kg/injection, schedule: Q01DX009 (ip), vehicle: saline.
Setting [2] is: dose: 100.0 mg/kg/injection, schedule: Q01DX009 (ip), vehicle: saline.
Where [3] appears, read: dose: 200.0 mg/kg/injection, schedule: Q01DX009 (ip), vehicle: saline.
[4] abbreviates: dose: 50.0 mg/kg/injection, schedule: Q01DX005 (ip), vehicle: saline with Tween-80.
[5] abbreviates: dose: 100.0 mg/kg/injection, schedule: Q01DX005 (ip), vehicle: saline with Tween-80.
[6] abbreviates: dose: 6.25 mg/kg/injection, schedule: Q01DX005 (ip), vehicle: Klucel (hydroxypropylcellulose) (HPC).
The mark [7] stands for this setting: dose: 12.5 mg/kg/injection, schedule: Q01DX005 (ip), vehicle: Klucel (hydroxypropylcellulose) (HPC).
Setting [8] is: dose: 25.0 mg/kg/injection, schedule: Q01DX005 (ip), vehicle: Klucel (hydroxypropylcellulose) (HPC).
[9] abbreviates: dose: 50.0 mg/kg/injection, schedule: Q01DX009 (ip), vehicle: saline with Tween-80.
[10] abbreviates: dose: 100.0 mg/kg/injection, schedule: Q01DX009 (ip), vehicle: saline with Tween-80.
The mark [11] stands for this setting: dose: 200.0 mg/kg/injection, schedule: Q01DX009 (ip), vehicle: saline with Tween-80.
The mark [12] stands for this setting: dose: 50.0 mg/kg/injection, schedule: Q01DX005 (ip), vehicle: Klucel (hydroxypropylcellulose) (HPC).
The mark [13] stands for this setting: dose: 100.0 mg/kg/injection, schedule: Q01DX005 (ip), vehicle: Klucel (hydroxypropylcellulose) (HPC).
[14] abbreviates: dose: 200.0 mg/kg/injection, schedule: Q01DX005 (ip), vehicle: Klucel (hydroxypropylcellulose) (HPC).
The mark [15] stands for this setting: dose: 60.0 mg/kg/injection, schedule: Q01DX005 (ip), vehicle: Klucel (hydroxypropylcellulose) (HPC).
Where [16] appears, read: dose: 120.0 mg/kg/injection, schedule: Q01DX005 (ip), vehicle: Klucel (hydroxypropylcellulose) (HPC).
Setting [17] is: dose: 240.0 mg/kg/injection, schedule: Q01DX005 (ip), vehicle: Klucel (hydroxypropylcellulose) (HPC).
Where [18] appears, read: dose: 50.0 mg/kg/injection, schedule: Q01DX009 (ip), vehicle: Klucel (hydroxypropylcellulose) (HPC).
The mark [19] stands for this setting: dose: 100.0 mg/kg/injection, schedule: Q01DX009 (ip), vehicle: Klucel (hydroxypropylcellulose) (HPC).

Where “and” joins values, the source holds several entries; their conditions need not be identical. Equal entries are not always repeated. Toxic doses and inconclusive results are not listed.

Turning to `O=C(O)c1ccccc1[Se](=O)(=O)O`, the T/C was 98 % of control under setting [1], 100 % of control under setting [2] and 112 % of control under setting [3].
In the case of `CC1CC(C)C(C)C(CNCC2CC(C)CC(C)C2C)C1` (stereo not drawn), the T/C runs as follows: (dose: 12.5 mg/kg/injection, schedule: Q01DX005 (ip), vehicle: saline with Tween-80) 99 % of control; (dose: 25.0 mg/kg/injection, schedule: Q01DX005 (ip), vehicle: saline with Tween-80) 99 % of control; under setting [4], 102 % of control and 97 % of control; under setting [5], 102 % of control.
Turning to `CCCCN=Cc1c(OC(C)=O)c(OC(C)=O)c(C(C)C)c2cc(C)c(-c3c(C)cc4c(C(C)C)c(OC(C)=O)c(OC(C)=O)c(C=NCCCC)c4c3OC(C)=O)c(OC(C)=O)c12`, the T/C runs as follows: under setting [6], 95 % of control; under setting [7], 98 % of control; under setting [8], 97 % of control.
As for `COC(=O)C1CC2C(=O)N(C)C(Br)C(Br)C12` (stereo not drawn), the T/C was 101 % of control (dose: 100.0 mg/kg/injection, schedule: Q04DX002 (ip), vehicle: saline) and 95 % of control (dose: 200.0 mg/kg/injection, schedule: Q04DX002 (ip), vehicle: saline).
For `CC(C)(CO)COC1OCN(C(C)(C)C)CC1(C)C` (stereo not drawn), the T/C reads like this: under setting [9], 100 % of control; under setting [10], 110 % of control; under setting [11], 112 % of control.
Taken in the same sequence, the figures for `N#CC(C#N)=CNc1ccccc1` were 100 % of control, 106 % of control and 104 % of control.
With `CCCCCCCCCCCCCCSCCCCCCCCCCCCCC`, the T/C reads like this: under setting [8], 100 % of control; under setting [12], 99 % of control; under setting [13], 92 % of control; under setting [14], 92 % of control.
Take `O=C1C(=O)c2ccc3c(c2-c2cc4c(cc21)OCO4)OCO3`: the T/C is, setting by setting: under setting [15], 86 % of control; under setting [16], 87 % of control.
For the molecule `CS(=O)(=O)N(C=O)c1ccccc1`, the T/C under setting [1] is 110 % of control, the T/C under setting [2] was 100 % of control and the T/C under setting [3] was 96 % of control.
On to `O=C(c1ccc(Cl)cc1)c1no[n+]([O-])c1C(=O)c1ccc(Cl)cc1`, for which the T/C was 115 % of control (dose: 25.0 mg/kg/injection, schedule: Q01DX009 (ip), vehicle: saline with Tween-80); 111 % of control under setting [9]; 118 % of control under setting [11].
Consider `CN=C(NC1CCCCC1)c1ccc(NC(=O)c2ccc(C(=O)Nc3ccc(C(=NC)NC4CCCCC4)cc3)cc2)cc1`, for which the T/C is, setting by setting: (dose: 1.5 mg/kg/injection, schedule: Q01DX005 (ip), vehicle: saline with Tween-80) 100 % of control; (dose: 3.0 mg/kg/injection, schedule: Q01DX005 (ip), vehicle: saline with Tween-80) 100 % of control; (dose: 6.0 mg/kg/injection, schedule: Q01DX005 (ip), vehicle: saline with Tween-80) 112 % of control; (dose: 6.25 mg/kg/injection, schedule: Q01DX005 (ip), vehicle: saline with Tween-80) 105 % of control.
As to `O=S(CF)c1ccccc1` (stereo not drawn), the T/C reads like this: (dose: 75.0 mg/kg/injection, schedule: Q04DX003 (ip), vehicle: saline) 91 % of control; (dose: 150.0 mg/kg/injection, schedule: Q04DX003 (ip), vehicle: saline) 101 % of control; (dose: 300.0 mg/kg/injection, schedule: Q04DX003 (ip), vehicle: saline) 107 % of control.
Regarding `c1ccc(-c2cc(-c3ccccc3)o/c(=N/n3cnnc3)c2)cc1`, the T/C was 99 % of control under setting [12], 89 % of control under setting [13] and 89 % of control under setting [14].
For `NC(=O)/C(N=Nc1ccccc1)=N\Nc1ccccc1`, the T/C reads like this: under setting [6], 91 % of control; under setting [7], 91 % of control; under setting [8], 87 % of control.
For the molecule `CC(=O)NC1=C(N2CC2)C(=O)C(NC(C)=O)=C(N2CC2)C1=O`, the T/C is 115 % of control (dose: 125.0 micrograms/kg/injection, schedule: Q01DX010 (ip), vehicle: saline); 215 % of control (dose: 500.0 micrograms/kg/injection, schedule: Q01DX010 (ip), vehicle: saline); 255 % of control (dose: 1000.0 micrograms/kg/injection, schedule: Q01DX010 (ip), vehicle: saline).
Regarding `CC(C)CCCC(C)C1CCC2C3CCC4CCC=CC4(C)C3CCC12C` (stereo not drawn), the T/C runs as follows: (dose: 30.0 mg/kg/injection, schedule: Q01DX005 (ip), vehicle: Klucel (hydroxypropylcellulose) (HPC)) 93 % of control; under setting [15], 90 % of control; under setting [16], 90 % of control; under setting [17], 91 % of control.
For `COc1ccc2c3c([nH]c2c1)C1CC2C(CC(O)C(OC)C2C(=O)O)CN1CC3` (stereo not drawn), the T/C was 100 % of control under setting [15], 100 % of control under setting [16] and 106 % of control under setting [17].
Turning to `COc1ccc(C2COc3cc(OC(C)=O)c(OC(C)=O)cc3C2)cc1` (stereo not drawn), the T/C reads like this: (dose: 60.0 mg/kg/injection, schedule: Q01DX005 (ip), vehicle: saline with Tween-80) 103 % of control; (dose: 120.0 mg/kg/injection, schedule: Q01DX005 (ip), vehicle: saline with Tween-80) 103 % of control; (dose: 240.0 mg/kg/injection, schedule: Q01DX005 (ip), vehicle: saline with Tween-80) 103 % of control.
For `O=c1[nH]c2cc(Cl)ccc2nc1/C=C(\O)c1ccc([N+](=O)[O-])cc1`, the T/C was 101 % of control under setting [15], 96 % of control under setting [16] and 89 % of control under setting [17].
With `CCOC(CCC1=NC(C)(C)CC(C)O1)OCC` (stereo not drawn), the T/C runs as follows: (dose: 100.0 mg/kg/injection, schedule: Q01DX001 (ip), vehicle: saline sonified) 110 % of control; (dose: 200.0 mg/kg/injection, schedule: Q01DX001 (ip), vehicle: saline sonified) 100 % of control; (dose: 400.0 mg/kg/injection, schedule: Q01DX001 (ip), vehicle: saline sonified) 90 % of control.
Consider `CSC(=S)n1nc(-c2ccccc2)c(N=Nc2cccc(Cl)c2)c1-c1ccccc1`, for which the T/C by setting is: (dose: 100.0 mg/kg/injection, schedule: Q04DX002 (ip), vehicle: saline with Tween-80) 107 % of control; (dose: 200.0 mg/kg/injection, schedule: Q04DX002 (ip), vehicle: saline with Tween-80) 104 % of control; (dose: 400.0 mg/kg/injection, schedule: Q04DX002 (ip), vehicle: saline with Tween-80) 119 % of control.
Turning to `CN=C1NC(=O)C(C(C)c2c[nH]c3ccccc23)S1` (stereo not drawn), the T/C runs as follows: under setting [18], 111 % of control; under setting [19], 111 % of control; (dose: 200.0 mg/kg/injection, schedule: Q01DX009 (ip), vehicle: Klucel (hydroxypropylcellulose) (HPC)) 113 % of control.
With `NC(=S)CCCCCC(N)=S`, the T/C is 103 % of control under setting [4]; 111 % of control under setting [5]; 103 % of control (dose: 200.0 mg/kg/injection, schedule: Q01DX005 (ip), vehicle: saline with Tween-80).
Turning to `O=C(Nc1ccccc1)P(=O)(O)c1ccccc1`, the T/C reads like this: (dose: 12.5 mg/kg/injection, schedule: Q01DX009 (ip), vehicle: Klucel (hydroxypropylcellulose) (HPC)) 93 % of control; (dose: 25.0 mg/kg/injection, schedule: Q01DX009 (ip), vehicle: Klucel (hydroxypropylcellulose) (HPC)) 100 % of control; under setting [18], 97 % of control; under setting [19], 93 % of control.
In the case of `N#C/C(=C1/OC(=N)C(c2ccc(Cl)cc2)C1=O)c1ccc(Cl)cc1` (stereo not drawn), the T/C under setting [4] was 110 % of control and the T/C under setting [5] is 99 % of control.
For the molecule `CC1CN1P(=S)(N1CCCC1)N1CC1C` (stereo not drawn), the T/C was 116 % of control (dose: 64.0 mg/kg/injection, schedule: Q04DX003 (ip), vehicle: saline with Tween-80); 150 % of control (dose: 66.0 mg/kg/injection, schedule: Q01DX009 (ip), vehicle: saline with Tween-80); 150 % of control under setting [10]; 86 % of control (dose: 150.0 mg/kg/injection, schedule: Q01DX009 (ip), vehicle: saline with Tween-80); 159 % of control (dose: 200.0 mg/kg/injection, schedule: Q04DX003 (ip), vehicle: saline with Tween-80); 100 % of control (dose: 256.0 mg/kg/injection, schedule: Q04DX003 (ip), vehicle: saline with Tween-80).

The values above are taken from PubChem BioAssay AID330 (DTP/NCI, 2004).
